Marks after values point to notes of the source that are not given here.
What was measured:
[1] = system: northern corn rootworm (NCR); assay: Sticky trap attraction in corn, phenylethanol analogues (Example 6); assay type: in vivo, Diabrotica barberi; settings: four replicates; for Mean number of NCR per trap (± standard deviation): 24 hour
Summary of the method: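 Readout was mean adult Diabrotica catch per trap over about 24 h, analysed by ANOVA on log data with Duncan's multiple range test (P=0.05). Traps carried 100 mg or 100 μL attractant per wick unless stated otherwise, with untreated controls, in four randomised replicates 10 m apart on posts along corn fields.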

[2] = system: southern corn rootworm (SCR) adults; assay: Sticky trap attraction in corn, estragole analogues (Example 3); assay type: in vivo, Diabrotica undecimpunctata howardi; settings: 100 mg per trap, n = 4
Summary of the method: (§1)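 Cotton wicks dosed with 100 mg or 100 μL attractant per trap on TangleTrap-coated cartons, four replicates 10 m apart on 1 m posts at field edges of hybrid or sweet corn. Mean beetles caught after ~24 h; log-transformed ANOVA with Duncan's test, P=0.05.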

[3] = system: D. u. howardi; assay: Sticky trap attraction in prairie habitat, Trelease Woods (Example 2); assay type: in vivo, Diabrotica undecimpunctata howardi; settings: 100 mg per trap, n = 4
Summary of the method: (§2)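 Lure-dosed cotton wicks (solids in acetone; untreated controls) on TangleTrap-coated cartons atop 1 m posts, four replicates 10 m apart in relict prairie, mid-August over two years. Read-out: mean beetles caught after 24-h; log-transformed ANOVA with Duncan's multiple range test.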

[4] = system: D. v. virgifera; assay: as above; assay type: in vivo, Diabrotica virgifera virgifera; settings: 100 mg per trap, n = 4
Summary of the method: as §2

[5] = system: D. barberi; assay: as above; assay type: in vivo, Diabrotica barberi; settings: for Mean number of D. barberi per day (±standard deviation) / Mean number of D. barberi per sticky trap per day (±standard deviation): 100 mg per trap, n = 4
Summary of the method: as §2

[6] = system: northern corn rootworm (NCR) adults; assay: Sticky trap attraction in corn, estragole analogues (Example 3); assay type: in vivo, Diabrotica barberi; settings: 100 mg per trap, n = 4
Summary of the method: as §1

[7] = day 1 after single 100 mg dosage on cotton wick
[8] = day 2 after single 100 mg dosage on cotton wick
[9] = day 3 after single 100 mg dosage on cotton wick
[10] = day 4 after single 100 mg dosage on cotton wick
[11] = day 5 after single 100 mg dosage on cotton wick
[12] = day 6 after single 100 mg dosage on cotton wick
[13] = day 7 after single 100 mg dosage on cotton wick
[14] = day 8 after single 100 mg dosage on cotton wick
[15] = day 11 after single 100 mg dosage on cotton wick

OCC=Cc1ccccc1 [XVIII, cinnamyl alcohol]
Mean number of NCR per trap (± standard deviation) ([1]; Table 16, 100 mg per trap): 50.7 ± 50.9b per trap
Mean number of NCR per trap (± standard deviation) ([1]; Table 18, 1 mg): 3.5 ± 2.4a per trap
Mean number of NCR per trap (± standard deviation) ([1]; Table 18, 3 mg): 4.0 ± 0.8ab per trap
Mean number of NCR per trap (± standard deviation) ([1]; Table 18, 10 mg): 8.5 ± 2.1bc per trap
Mean number of NCR per trap (± standard deviation) ([1]; Table 18, 30 mg): 15.2 ± 4.2c* per trap
Mean number of NCR per trap (± standard deviation) ([1]; Table 20, 100 mg per trap): 127.0 ± 24.2b per trap
Mean number (control subtracted) of NCR per trap [1, 7]: 52.0 per trap
Mean number (control subtracted) of NCR per trap [1, 8]: 65.3 per trap
Mean number (control subtracted) of NCR per trap [1, 9]: 17.3 per trap
Mean number (control subtracted) of NCR per trap [1, 10]: 19.5 per trap
Mean number (control subtracted) of NCR per trap [1, 11]: 17.7 per trap
Mean number (control subtracted) of NCR per trap [1, 12]: 7.7 per trap
Mean number (control subtracted) of NCR per trap [1, 13]: 10.4 per trap
Mean number (control subtracted) of NCR per trap [1, 14]: 11.0 per trap
Mean number (control subtracted) of NCR per trap [1, 15]: 9.8 per trap
Mean number of SCR per sticky trap after 24 hours ([2]; August 5 (Table 10)): 14.5 ± 9.6^ab per sticky trap
Mean number of SCR (±standard deviation) per sticky trap after 24 hours ([2]; August 7 (Table 11)): 24.5 ± 13.6^b per sticky trap
Mean number of SCR (±standard deviation) per sticky trap after 24 hours ([2]; August 18 (Table 11)): 1.8 ± 1.3^b per sticky trap
Mean number of D. u. howardi per day (±standard deviation) ([3]; August 11, 1987): 0.3 ± 0.5^a per day
Mean number of D. u. howardi per day (±standard deviation) ([3]; August 14, 1987): 2.8 ± 1.7^b per day
Mean number of D. v. virgifera per day (±standard deviation) ([4]; August 11, 1987): 0.0 per day
Mean number of D. v. virgifera per day (±standard deviation) ([4]; August 14, 1987): 0.0^a per day
Mean number of D. barberi per day (±standard deviation) ([5]; August 11, 1987): 16.5 ± 5.1^c per day
Mean number of D. barberi per day (±standard deviation) ([5]; August 14, 1987): 13.0 ± 12.8^bc per day
activity for D. barberi relative to estragole ([5]; prairie, Table 5): 5 times
activity for D. barberi relative to the TIC mixture ([5]; prairie, Table 5): ca. 3.5 times
Mean number of NCR per sticky trap after 24 hours ([6]; August 5 (Table 10)): 8.7 ± 4.6^c per sticky trap
Mean number of NCR (±standard deviation) per sticky trap after 24 hours ([6]; August 7 (Table 11)): 8.5 ± 6.1^b per sticky trap
Mean number of NCR (±standard deviation) per sticky trap after 24 hours ([6]; August 18 (Table 11)): 23.2 ± 5.9^c per sticky trap

C=CCc1ccc(O)c(OC)c1 [XXIV, eugenol]
Mean number (control subtracted) of NCR per trap [1, 7]: 88.2 per trap
Mean number (control subtracted) of NCR per trap [1, 8]: 67.3 per trap
Mean number (control subtracted) of NCR per trap [1, 9]: 14.3 per trap
Mean number (control subtracted) of NCR per trap [1, 10]: 18.0 per trap
Mean number (control subtracted) of NCR per trap [1, 11]: 20.7 per trap
Mean number (control subtracted) of NCR per trap [1, 12]: 29.9 per trap
Mean number (control subtracted) of NCR per trap [1, 13]: 30.2 per trap
Mean number (control subtracted) of NCR per trap [1, 14]: 35.5 per trap
Mean number (control subtracted) of NCR per trap [1, 15]: 10.0 per trap
Mean number of SCR (±standard deviation) per sticky trap after 24 hours ([2]; August 7 (Table 11)): 6.2 ± 1.0^a per sticky trap
Mean number of SCR (±standard deviation) per sticky trap after 24 hours ([2]; August 18 (Table 11)): 0.0^a per sticky trap
Mean number of D. u. howardi per day (±standard deviation) ([3]; August 11, 1987): 0.0^a per day
Mean number of D. u. howardi per day (±standard deviation) ([3]; August 14, 1987): 0.0^a per day
Mean number of D. u. howardi per sticky trap per day (±standard deviation) ([3]; August 18, first year): 0.3 ± 0.5^a per sticky trap per day
Mean number of D. u. howardi per sticky trap per day (±standard deviation) ([3]; August 20, first year): 0.8 ± 0.5^a per sticky trap per day
Mean number of D. u. howardi per sticky trap per day (±standard deviation) ([3]; August 27, first year): 0.3 ± 0.5^a per sticky trap per day
Mean number of D. v. virgifera per day (±standard deviation) ([4]; August 11, 1987): 0.3 ± 0.5^a per day
Mean number of D. v. virgifera per day (±standard deviation) ([4]; August 14, 1987): 0.0^a per day
Mean number of D. v. virgifera per sticky trap per day (±standard deviation) ([4]; August 18, first year): 0.3 ± 0.5^a per sticky trap per day
Mean number of D. v. virgifera per sticky trap per day (±standard deviation) ([4]; August 20, first year): 0 per sticky trap per day
Mean number of D. v. virgifera per sticky trap per day (±standard deviation) ([4]; August 27, first year): 0 per sticky trap per day
Mean number of D. barberi per day (±standard deviation) ([5]; August 11, 1987): 9.5 ± 8.3^bc per day
Mean number of D. barberi per day (±standard deviation) ([5]; August 14, 1987): 8.3 ± 3.3^c per day
Mean number of D. barberi per sticky trap per day (±standard deviation) ([5]; August 18, first year): 21.8 ± 7.3^b per sticky trap per day
Mean number of D. barberi per sticky trap per day (±standard deviation) ([5]; August 20, first year): 22.5 ± 13.2^c per sticky trap per day
Mean number of D. barberi per sticky trap per day (±standard deviation) ([5]; August 27, first year): 10.5 ± 4.8^b per sticky trap per day
activity for D. barberi relative to estragole ([5]; prairie, Table 5): 2 times
Mean number of NCR (±standard deviation) per sticky trap after 24 hours ([6]; August 7 (Table 11)): 5.7 ± 2.2^b per sticky trap
Mean number of NCR (±standard deviation) per sticky trap after 24 hours ([6]; August 18 (Table 11)): 16.5 ± 5.7^b per sticky trap

Source: patent US6613317B1, “Volatile attractants for diabrotica species” (priority 1988, dated 2003)
